Tests used:
[1] = test system: Androgen-induced PSA-luciferase; assay: Androgen-induced PSA (6.1 kb)-luciferase reporter assay in LNCaP cells; type: cell-based; details: Homo sapiens, R1881 1 nM, 24 h
Procedure: To determine the IC50, treatments were normalized to the maximum activity with androgen-induction (in the absence of test compounds, vehicle only) (Table 1).
Luciferase Assay: Lysates were thawed on ice then collected into V-bottom 96-well tissue culture plates. Lysates were centrifuged at 4° C. for 5 minutes at 4000 rpm. To measure luminescence of LNCaP cell lysates the Firefly Luciferase Assay System (Promega) was employed, according to manufacturer's protocol.
Comparisons between treatment and control groups were compared using Two-Way ANOVA with post-hoc Dunnett's and Tukey's tests. Differences were considered statistically significant at P values less than 0.05. Densitometric quantification of relative AR levels was determined by Image.

[2] = test system: VCaP tumors; assay: VCaP xenograft model, castrated male SCID Beige mice; type: in vivo; details: oral, castrated male SCID Beige mice (FIGS. 1-4)
Procedure: Tumor growth was measured in male SCID Beige mice bearing VCaP tumors. […] Individual tumor volume change from baseline measured on day 17 of the experiment (FIGS. 2A-2B). Serum prostate-specific antigen (PSA) was measured in mice at the end of each treatment (FIG. 3). Body weight of the mice were captured biweekly in the animals and normalized to baseline (FIG. 4).

[3] = test system: androgen responsive genes in LNCaP cells; assay: mRNA expression of androgen responsive genes in LNCaP cells (NanoString Androgen Receptor/Prostate Cancer gene panel)
[4] = test system: AR full-length and AR V7 driven genes in LNCaP95 cells; assay: mRNA expression of androgen responsive genes in LNCaP95 (+R1881) cells (NanoString Androgen Receptor/Prostate Cancer gene panel)
Procedure: Relative mRNA expression in LNCaP95 (+R1881) was measured for Canonical AR target genes (FIG. 9A) and AR V7-activated genes (FIG. 9B).
Data shown in FIGS. 8A-8B and 9A-9B and Table 5 were generated using NanoString Androgen Receptor/Prostate Cancer gene panel.

For `CC(C)(c1ccc(OCc2ocnc2S(C)(=O)=O)cc1)c1cc(Cl)c(OCCCl)c(Cl)c1` [Compound A13, 5-((4-(2-(3,5-dichloro-4-(2-chloroethoxy)phenyl)propan-2-yl)phenoxy)methyl)-4-(methylsulfonyl)oxazole], the IC50 [1] was 592 nM.

For `CC(C)(c1ccc(OCc2ocnc2S(C)(=O)=O)cc1)c1cc(Cl)c(OCCCl)c(C#N)c1` [Compound A28], the IC50 [1] was 400 nM.

For `Cc1cc(C(C)(C)c2ccc(OCc3ocnc3S(C)(=O)=O)cc2)cc(C#N)c1OCCCl` [Compound A29], the IC50 [1] was 466 nM.

With `CC(Oc1ccc(C(C)(C)c2cc(Cl)c(OCCCl)c(Cl)c2)cc1)c1ocnc1S(C)(=O)=O` (centres unmarked) [Compound A35, 5-(1-(4-(2-(3,5-dichloro-4-(2-chloroethoxy)phenyl)propan-2-yl)phenoxy)ethyl)-4-(methylsulfonyl)oxazole] the IC50 [1] was 515 nM.

`CC(C)(c1ccc(OCc2coc(NS(C)(=O)=O)n2)cc1)c1cc(Cl)c(OCCCl)c(Cl)c1` [Compound A38, N-(4-((4-(2-(3,5-dichloro-4-(2-chloroethoxy)phenyl)propan-2-yl)phenoxy)methyl)oxazol-2-yl)methanesulfonamide] gave an IC50 [1] of 631 nM.

For `CC(C)(c1ccc(OCc2ncc(S(C)(=O)=O)o2)cc1)c1cc(Cl)c(OCCCl)c(Cl)c1` [Compound A66], the IC50 [1] was 890 nM.

`CC(C)(c1ccc(OCc2ccnc(NS(C)(=O)=O)n2)cc1)c1cc(Cl)c(OCCCl)c(Cl)c1` [Compound A74] was tested, and the IC50 [1] was 658 nM.

For `CC(C)(c1ccc(OCc2ncc(S(C)(=O)=O)s2)cc1)c1cc(Cl)c(OCCCl)c(C#N)c1` [Compound A93], the IC50 [1] was 205 nM.

For `CC(C)(c1ccc(OCc2ccnc(NS(C)(=O)=O)n2)cc1)c1cc(Cl)c(OCCCl)c(C#N)c1` [Compound A109, N-(4-((4-(2-(3-chloro-4-(2-chloroethoxy)-5-cyanophenyl)propan-2-yl)phenoxy)methyl)pyrimidin-2-yl)methanesulfonamide], the IC50 [1] was 535 nM, the anti-tumor response ([2]; in combination with enzalutamide) was “excellent anti-tumor response” and the anti-tumor response ([2]; monotherapy) was “excellent anti-tumor response”. The “response in the androgen response genes FKBP5, TMPRSS2, KLK2, KLK3, and NKX3.1 (relative mRNA expression)” value ([3]; LNCaP cells, FIG. 6A) was “dose-dependent response”, the “Log2Fold Change ACSL3” value ([3]; LNCaP, 7.5 μM single agent) was −3.62 and the “Log2Fold Change AKAP12” value ([3]; LNCaP, 7.5 μM single agent) was −3.84. For the same compound, the “Log2Fold Change CDC6” value ([3]; LNCaP, 7.5 μM single agent) was −3.60, the “Log2Fold Change CENPN” value ([3]; LNCaP, 7.5 μM single agent) was −2.13 and the “Log2Fold Change EAF2” value ([3]; LNCaP, 7.5 μM single agent) was −3.81. For the same compound, the “Log2Fold Change ELL2” value ([3]; LNCaP, 7.5 μM single agent) was −3.05, the “Log2Fold Change ERRFI1” value ([3]; LNCaP, 7.5 μM single agent) was −2.76 and the “Log2Fold Change FAM105A” value ([3]; LNCaP, 7.5 μM single agent) was −2.78. For the same compound, the “Log2Fold Change FKBP5” value ([3]; LNCaP, 7.5 μM single agent) was −4.47, the “Log2Fold Change KLK2” value ([3]; LNCaP, 7.5 μM single agent) was −2.71 and the “Log2Fold Change KLK3” value ([3]; LNCaP, 7.5 μM single agent) was −2.42. The “Log2Fold Change NCAPD3” value ([3]; LNCaP, 7.5 μM single agent) was −4.40, the “Log2Fold Change NDRG1” value ([3]; LNCaP, 7.5 μM single agent) was −4.17 and the “Log2Fold Change NKX3-1” value ([3]; LNCaP, 7.5 μM single agent) was −2.28. The “Log2Fold Change PLPP1” value ([3]; LNCaP, 7.5 μM single agent) was −3.53, the “Log2Fold Change PMEPA1” value ([3]; LNCaP, 7.5 μM single agent) was −2.16 and the “Log2Fold Change RHOU” value ([3]; LNCaP, 7.5 μM single agent) was −3.03. For the same compound, the “Log2Fold Change SNAI2” value ([3]; LNCaP, 7.5 μM single agent) was −1.79, the “Log2Fold Change STEAP4” value ([3]; LNCaP, 7.5 μM single agent) was −4.22 and the “Log2Fold Change TMPRSS2” value ([3]; LNCaP, 7.5 μM single agent) was −3.32. The “modulation of androgen receptor full-length driven genes” value ([3]; LNCaP, FIGS. 5A-5B and Table 4) was “can modulate androgen receptor0 full-length driven genes similar to enzalutamide”, the “log2 Fold Change ADAMTS1” value ([4]; 7.5 μM) was −3.96 and the “log2 Fold Change CCND1” value ([4]; 7.5 μM) was −3.96. For the same compound, the “log2 Fold Change FKBP5” value ([4]; 7.5 μM) was −4.18, the “log2 Fold Change KLK2” value ([4]; 7.5 μM) was −5.07 and the “log2 Fold Change KLK3” value ([4]; 7.5 μM) was −5.48. For the same compound, the “log2 Fold Change NCAPD3” value ([4]; 7.5 μM) was −3.8, the “log2 Fold Change NDRG1” value ([4]; 7.5 μM) was −4.47 and the “log2 Fold Change NKX3-1” value ([4]; 7.5 μM) was −4.23. For the same compound, the “log2 Fold Change PMEPA1” value ([4]; 7.5 μM) was −3.93, the “log2 Fold Change PRR15L” value ([4]; 7.5 μM) was −3.89 and the “modulation of AR full-length and AR V7 driven genes” value ([4]; FIGS. 8A-8B and 9A-9B) was “can modulate AR full-length and AR V7 driven genes”.

With `Cc1cnc(NS(C)(=O)=O)nc1COc1ccc(C(C)(C)c2cc(Cl)c(OCCCl)c(C#N)c2)cc1` [Compound A122] the IC50 [1] was 258 nM.

In the case of `CCS(=O)(=O)Nc1nc(COc2ccc(C(C)(C)c3cc(Cl)c(OCCCl)c(C#N)c3)cc2)co1` [Compound A126], the IC50 [1] is reported as 629 nM.

With `CCS(=O)(=O)Nc1nccc(COc2ccc(C(C)(C)c3cc(Cl)c(OCCCl)c(C#N)c3)cc2)n1` [Compound A131] the IC50 [1] was 1100 nM.

For `CC(C)(c1ccc(OCc2nc(S(C)(=O)=O)cs2)cc1)c1cc(Cl)c(OCCCl)c(C#N)c1` [Compound A136], the IC50 [1] was 601 nM.

For `C[C@H](Oc1ccc(C(C)(C)c2cc(Cl)c(OCCCl)c(Cl)c2)cc1)c1ccnc(NS(C)(=O)=O)n1` [Compound A170], the IC50 [1] was 651 nM.

With `CC(O)c1cc(C(=O)N[C@@H](C)Cn2ccc(-c3ccc(C#N)c(Cl)c3)n2)[nH]n1` (some centres unmarked) [Darolutamide, darolutamide, reference compound] the “activity on gene expression in LNCaP” value ([3]; LNCaP cells, FIG. 7A-7B) was “not very active”.
